Laboratory results reported in ChEMBL document CHEMBL3217617 (Medchemcomm, 2012).

Columns and labels:
Histone deacetylase [1] = assay: Inhibition of HDAC in human HeLa cell nuclear extracts using Ac-NH-GGK(Ac)-AMC as substrate after 180 mins by fluorescence assay; format: protein assay
Histone deacetylase [2] = assay: Inhibition of HDAC in human HeLa cells using Boc-K(Ac)-AMC as substrate preincubated for 4 hrs before substrate addition measured after 3 hrs by fluorescence assay; format: cell-based
Histone deacetylase 1 [3] = target: T1, Histone deacetylase 1 (Homo sapiens, UniProt Q13547); assay: Inhibition of human recombinant HDAC1 expressed in human HEK293 cells using Ac-NH-GGK(Ac)-AMC as substrate after 180 mins by fluorescence assay
T1 sequence (Q13547 whole entry): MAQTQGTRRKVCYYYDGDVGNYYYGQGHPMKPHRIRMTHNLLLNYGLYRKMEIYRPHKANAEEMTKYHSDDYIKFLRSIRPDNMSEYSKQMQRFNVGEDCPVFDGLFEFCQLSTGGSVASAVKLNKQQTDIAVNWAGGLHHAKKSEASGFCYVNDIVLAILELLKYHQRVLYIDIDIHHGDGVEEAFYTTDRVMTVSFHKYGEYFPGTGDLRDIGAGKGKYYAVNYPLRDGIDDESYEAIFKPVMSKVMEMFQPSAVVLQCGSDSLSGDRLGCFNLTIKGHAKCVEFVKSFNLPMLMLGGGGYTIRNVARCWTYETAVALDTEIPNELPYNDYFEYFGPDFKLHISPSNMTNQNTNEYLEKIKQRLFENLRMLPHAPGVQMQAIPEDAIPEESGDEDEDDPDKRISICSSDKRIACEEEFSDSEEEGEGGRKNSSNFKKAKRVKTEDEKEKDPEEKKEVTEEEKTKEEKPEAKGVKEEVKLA

Histone deacetylase 3 [4] = target: T2, Histone deacetylase 3 (Homo sapiens, UniProt O15379); assay: Inhibition of human recombinant HDAC3 expressed in Sf21 insect cells using Ac-NH-GGK(Ac)-AMC as substrate after 180 mins by fluorescence assay
[5] = target: T3, Protein deacetylase HDAC6 (Homo sapiens, UniProt Q9UBN7); assay: Inhibition of human recombinant HDAC6 expressed in human HEK293 cells using Ac-NH-GGK(Ac)-AMC as substrate after 180 mins by fluorescence assay
T3 sequence (Q9UBN7 whole entry): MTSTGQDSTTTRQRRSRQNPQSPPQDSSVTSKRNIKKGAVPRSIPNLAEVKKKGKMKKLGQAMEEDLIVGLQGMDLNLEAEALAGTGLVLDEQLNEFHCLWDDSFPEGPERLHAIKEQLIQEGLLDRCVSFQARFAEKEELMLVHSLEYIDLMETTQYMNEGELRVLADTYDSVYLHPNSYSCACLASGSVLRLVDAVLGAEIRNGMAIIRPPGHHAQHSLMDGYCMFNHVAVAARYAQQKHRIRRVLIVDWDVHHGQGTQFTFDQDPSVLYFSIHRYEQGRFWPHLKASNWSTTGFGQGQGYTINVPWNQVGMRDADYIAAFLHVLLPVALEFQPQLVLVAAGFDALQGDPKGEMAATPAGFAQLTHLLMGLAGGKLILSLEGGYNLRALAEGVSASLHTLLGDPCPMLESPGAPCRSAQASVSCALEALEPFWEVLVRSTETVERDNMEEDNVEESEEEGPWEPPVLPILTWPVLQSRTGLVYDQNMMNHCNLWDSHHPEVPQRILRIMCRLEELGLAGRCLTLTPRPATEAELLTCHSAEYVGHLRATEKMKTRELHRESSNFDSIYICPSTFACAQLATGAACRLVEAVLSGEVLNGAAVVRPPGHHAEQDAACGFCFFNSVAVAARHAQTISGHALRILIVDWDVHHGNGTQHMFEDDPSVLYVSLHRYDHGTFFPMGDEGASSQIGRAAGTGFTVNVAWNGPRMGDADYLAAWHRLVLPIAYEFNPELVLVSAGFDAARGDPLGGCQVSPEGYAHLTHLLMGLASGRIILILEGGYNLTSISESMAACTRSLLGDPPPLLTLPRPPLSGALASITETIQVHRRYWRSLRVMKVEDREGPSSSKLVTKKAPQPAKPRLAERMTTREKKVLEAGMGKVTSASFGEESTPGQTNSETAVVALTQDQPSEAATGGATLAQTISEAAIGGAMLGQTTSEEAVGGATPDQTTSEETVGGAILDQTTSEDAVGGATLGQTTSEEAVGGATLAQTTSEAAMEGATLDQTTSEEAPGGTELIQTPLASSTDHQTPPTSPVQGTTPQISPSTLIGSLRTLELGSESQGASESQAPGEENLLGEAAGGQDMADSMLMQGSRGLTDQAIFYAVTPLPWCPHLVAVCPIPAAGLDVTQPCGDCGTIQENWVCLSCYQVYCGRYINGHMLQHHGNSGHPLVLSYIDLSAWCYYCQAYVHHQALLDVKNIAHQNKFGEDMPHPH

Histone deacetylase 8 = target: T4, Histone deacetylase 8 (Homo sapiens, UniProt Q9BY41); assay: Inhibition of human recombinant HDAC8 expressed in Sf21 insect cells using Ac-NH-GGK(Ac)-AMC as substrate after 180 mins by fluorescence assay
T4 sequence (Q9BY41 whole entry): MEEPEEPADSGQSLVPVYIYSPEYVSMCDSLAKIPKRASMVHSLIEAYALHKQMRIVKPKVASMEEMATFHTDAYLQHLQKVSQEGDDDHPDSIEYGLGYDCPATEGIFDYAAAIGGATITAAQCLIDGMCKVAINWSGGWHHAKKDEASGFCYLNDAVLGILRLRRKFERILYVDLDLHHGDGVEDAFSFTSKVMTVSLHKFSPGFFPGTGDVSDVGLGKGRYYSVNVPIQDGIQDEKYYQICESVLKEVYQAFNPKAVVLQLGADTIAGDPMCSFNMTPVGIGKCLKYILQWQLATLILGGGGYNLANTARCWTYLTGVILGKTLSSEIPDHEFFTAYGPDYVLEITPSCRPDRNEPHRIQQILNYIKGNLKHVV

[6] = target: T5, Histone deacetylase (Homo sapiens) (UniProt Q13547+O15379+Q9UBN7+Q92769+Q9UQL6+Q8WUI4+Q9BY41+Q96DB2+P56524+Q9UKV0+Q969S8); assay: Inhibition of HDAC in human HeLa cell nuclear extracts using Ac-NH-GGK(Ac)-AMC as substrate after 180 mins by fluorescence assay relative to control; format: protein assay
[7] = target: Epidermal growth factor receptor (Homo sapiens, UniProt P00533); assay: Inhibition of recombinant EGFR (unknown origin) using poly-Glu-Tyr peptide as substrate
[8] = target: Receptor tyrosine-protein kinase erbB-2 (Homo sapiens, UniProt P04626); assay: Inhibition of recombinant HER2 (unknown origin) using poly-Glu-Tyr peptide as substrate
[9] = target: Platelet-derived growth factor receptor beta (Homo sapiens, UniProt P09619); assay: Inhibition of recombinant PDGFRbeta (unknown origin) using poly-Glu-Tyr peptide as substrate
Platelet-derived growth factor receptor beta, sequence (P09619 whole entry): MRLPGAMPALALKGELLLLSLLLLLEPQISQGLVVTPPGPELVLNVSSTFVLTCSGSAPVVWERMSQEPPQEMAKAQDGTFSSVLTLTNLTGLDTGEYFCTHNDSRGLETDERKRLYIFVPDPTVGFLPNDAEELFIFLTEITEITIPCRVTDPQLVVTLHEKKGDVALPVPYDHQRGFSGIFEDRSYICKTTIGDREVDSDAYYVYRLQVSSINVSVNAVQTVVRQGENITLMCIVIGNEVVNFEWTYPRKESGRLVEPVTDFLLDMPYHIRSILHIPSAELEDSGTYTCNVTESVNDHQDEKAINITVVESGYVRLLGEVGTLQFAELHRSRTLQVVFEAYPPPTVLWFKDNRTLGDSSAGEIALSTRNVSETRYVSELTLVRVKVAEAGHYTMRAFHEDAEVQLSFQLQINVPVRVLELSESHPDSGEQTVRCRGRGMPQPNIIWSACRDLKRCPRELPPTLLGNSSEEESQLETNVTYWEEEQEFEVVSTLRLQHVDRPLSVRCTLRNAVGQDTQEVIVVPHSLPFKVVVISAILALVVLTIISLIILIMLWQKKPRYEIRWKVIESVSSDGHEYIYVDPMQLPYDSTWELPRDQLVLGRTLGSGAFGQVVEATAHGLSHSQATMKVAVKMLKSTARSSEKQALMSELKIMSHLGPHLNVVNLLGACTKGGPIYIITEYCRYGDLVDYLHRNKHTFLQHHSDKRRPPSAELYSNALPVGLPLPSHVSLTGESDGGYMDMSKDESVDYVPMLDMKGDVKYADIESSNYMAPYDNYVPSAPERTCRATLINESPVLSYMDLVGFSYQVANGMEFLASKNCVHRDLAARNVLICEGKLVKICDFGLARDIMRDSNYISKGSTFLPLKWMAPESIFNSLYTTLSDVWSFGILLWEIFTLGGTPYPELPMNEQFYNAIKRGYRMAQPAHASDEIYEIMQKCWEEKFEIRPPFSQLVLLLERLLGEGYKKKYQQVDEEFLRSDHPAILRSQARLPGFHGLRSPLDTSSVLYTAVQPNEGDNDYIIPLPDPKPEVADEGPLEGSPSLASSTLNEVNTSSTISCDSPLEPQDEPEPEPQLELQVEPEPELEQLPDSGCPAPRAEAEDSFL

Insulin receptor = Insulin receptor (Homo sapiens, UniProt P06213); assay: Inhibition of recombinant InsR (unknown origin) using poly-Glu-Tyr peptide as substrate
Insulin receptor, sequence (P06213 28-758 limits assumed): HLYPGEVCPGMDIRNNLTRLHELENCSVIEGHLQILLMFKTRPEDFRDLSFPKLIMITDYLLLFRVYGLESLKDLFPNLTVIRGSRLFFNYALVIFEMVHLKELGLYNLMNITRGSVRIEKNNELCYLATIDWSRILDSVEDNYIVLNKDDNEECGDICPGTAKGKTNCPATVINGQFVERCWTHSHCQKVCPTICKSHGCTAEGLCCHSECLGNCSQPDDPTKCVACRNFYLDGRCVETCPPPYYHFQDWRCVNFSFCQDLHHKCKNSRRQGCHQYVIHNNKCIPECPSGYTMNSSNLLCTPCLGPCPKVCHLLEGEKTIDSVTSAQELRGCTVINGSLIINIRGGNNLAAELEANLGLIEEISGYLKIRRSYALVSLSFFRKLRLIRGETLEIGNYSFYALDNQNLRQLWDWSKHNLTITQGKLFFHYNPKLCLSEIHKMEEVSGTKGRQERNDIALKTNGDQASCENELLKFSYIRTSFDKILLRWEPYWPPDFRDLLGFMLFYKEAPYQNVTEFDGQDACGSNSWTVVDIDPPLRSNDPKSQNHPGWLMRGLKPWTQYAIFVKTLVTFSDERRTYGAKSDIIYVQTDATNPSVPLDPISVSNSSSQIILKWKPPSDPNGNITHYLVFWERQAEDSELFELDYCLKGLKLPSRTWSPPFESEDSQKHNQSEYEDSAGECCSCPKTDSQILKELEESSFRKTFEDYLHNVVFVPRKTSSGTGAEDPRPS
Insulin receptor, sequence (P06213 763-1382 limits assumed): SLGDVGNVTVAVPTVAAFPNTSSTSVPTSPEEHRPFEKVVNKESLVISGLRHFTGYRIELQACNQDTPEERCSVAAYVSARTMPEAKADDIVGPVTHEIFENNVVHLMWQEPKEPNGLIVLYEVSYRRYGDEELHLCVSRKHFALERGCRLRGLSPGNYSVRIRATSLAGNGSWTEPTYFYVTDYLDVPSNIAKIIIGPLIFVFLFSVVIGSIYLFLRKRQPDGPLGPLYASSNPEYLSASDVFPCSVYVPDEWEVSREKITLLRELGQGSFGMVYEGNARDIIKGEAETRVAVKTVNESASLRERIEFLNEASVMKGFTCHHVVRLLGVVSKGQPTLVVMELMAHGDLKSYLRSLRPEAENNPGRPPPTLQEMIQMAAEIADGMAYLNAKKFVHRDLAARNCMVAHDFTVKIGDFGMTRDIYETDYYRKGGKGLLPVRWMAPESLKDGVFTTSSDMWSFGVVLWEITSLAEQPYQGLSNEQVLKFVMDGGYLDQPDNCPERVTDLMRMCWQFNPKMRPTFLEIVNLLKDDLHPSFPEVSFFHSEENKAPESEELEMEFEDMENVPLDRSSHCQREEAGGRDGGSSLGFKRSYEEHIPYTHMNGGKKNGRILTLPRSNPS

[10] = target: Tyrosine-protein kinase ABL1 (Homo sapiens, UniProt P00519); assay: Inhibition of recombinant Abl1 (unknown origin) using poly-Glu-Tyr peptide as substrate
Tyrosine-protein kinase ABL1, sequence (P00519 whole entry): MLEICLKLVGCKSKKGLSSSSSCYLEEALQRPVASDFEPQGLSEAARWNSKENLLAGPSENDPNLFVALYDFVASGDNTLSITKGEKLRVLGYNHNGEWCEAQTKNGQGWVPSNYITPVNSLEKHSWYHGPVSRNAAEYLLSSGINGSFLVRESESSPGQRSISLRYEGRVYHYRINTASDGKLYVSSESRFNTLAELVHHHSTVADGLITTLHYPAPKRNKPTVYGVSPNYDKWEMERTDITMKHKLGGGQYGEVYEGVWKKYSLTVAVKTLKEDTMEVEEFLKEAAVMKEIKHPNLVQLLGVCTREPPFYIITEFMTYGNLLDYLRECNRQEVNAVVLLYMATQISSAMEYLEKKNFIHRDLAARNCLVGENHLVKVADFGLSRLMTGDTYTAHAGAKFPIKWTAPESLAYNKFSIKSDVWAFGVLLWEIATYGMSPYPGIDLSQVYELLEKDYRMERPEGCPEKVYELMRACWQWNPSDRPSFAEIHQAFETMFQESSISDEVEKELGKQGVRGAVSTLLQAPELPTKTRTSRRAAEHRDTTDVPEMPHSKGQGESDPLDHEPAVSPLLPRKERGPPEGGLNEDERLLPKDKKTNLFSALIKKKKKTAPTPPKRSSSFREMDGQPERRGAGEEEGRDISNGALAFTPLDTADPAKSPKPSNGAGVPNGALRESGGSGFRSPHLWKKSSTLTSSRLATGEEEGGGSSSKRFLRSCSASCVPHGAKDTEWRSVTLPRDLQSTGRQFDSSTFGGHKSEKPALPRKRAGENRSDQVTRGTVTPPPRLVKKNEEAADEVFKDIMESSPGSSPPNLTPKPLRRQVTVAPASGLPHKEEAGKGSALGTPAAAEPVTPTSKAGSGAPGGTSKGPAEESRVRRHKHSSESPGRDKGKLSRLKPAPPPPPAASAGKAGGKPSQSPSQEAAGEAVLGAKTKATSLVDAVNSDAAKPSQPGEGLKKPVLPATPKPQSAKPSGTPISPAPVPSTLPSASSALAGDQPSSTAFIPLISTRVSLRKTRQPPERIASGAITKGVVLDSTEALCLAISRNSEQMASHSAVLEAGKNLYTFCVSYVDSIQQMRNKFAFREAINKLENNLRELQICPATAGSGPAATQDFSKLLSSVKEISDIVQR

[11] = target: Cyclin-dependent kinase 2 (Homo sapiens, UniProt P24941); assay: Inhibition of recombinant CDK2 (unknown origin) using poly-Glu-Tyr peptide as substrate
[12] = Inhibition of recombinant PKA (unknown origin) using poly-Glu-Tyr peptide as substrate; set-up: species or system Homo sapiens
[13] = target: Serine/threonine-protein kinase PLK1 (Homo sapiens, UniProt P53350); assay: Inhibition of recombinant Plk1 (unknown origin) using poly-Glu-Tyr peptide as substrate
Serine/threonine-protein kinase PLK1, sequence (P53350 whole entry): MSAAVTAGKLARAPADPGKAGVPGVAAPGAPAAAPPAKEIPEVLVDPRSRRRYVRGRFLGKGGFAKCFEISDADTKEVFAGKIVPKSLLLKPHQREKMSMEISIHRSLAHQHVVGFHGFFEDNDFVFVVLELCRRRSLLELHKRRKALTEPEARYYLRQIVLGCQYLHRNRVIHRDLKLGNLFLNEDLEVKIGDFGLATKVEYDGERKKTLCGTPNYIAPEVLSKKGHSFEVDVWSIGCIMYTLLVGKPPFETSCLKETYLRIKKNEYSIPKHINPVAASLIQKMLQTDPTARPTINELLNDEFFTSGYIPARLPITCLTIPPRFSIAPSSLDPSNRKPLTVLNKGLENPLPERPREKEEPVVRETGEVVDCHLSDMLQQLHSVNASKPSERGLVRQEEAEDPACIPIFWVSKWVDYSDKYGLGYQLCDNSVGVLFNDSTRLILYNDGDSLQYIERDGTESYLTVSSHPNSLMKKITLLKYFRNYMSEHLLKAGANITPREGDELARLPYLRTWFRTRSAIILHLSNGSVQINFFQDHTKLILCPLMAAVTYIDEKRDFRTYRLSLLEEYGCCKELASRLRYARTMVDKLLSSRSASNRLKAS

HeLa = assay: Cytotoxicity against human HeLa cells by Alamar Blue assay; format: functional, cell-based
A549 = assay: Cytotoxicity against human A549 cells by Alamar Blue assay; format: functional, cell-based
A-431 = assay: Cytotoxicity against human A431 cells by Alamar Blue assay; format: functional, cell-based
[14] = Cytotoxicity against human CAL27 cells by Alamar Blue assay; format: functional, cell-based; conditions: CAL-27
[15] = Cytotoxicity against human SKBR3 cells by Alamar Blue assay; format: functional, cell-based; conditions: SK-BR-3
SK-OV-3 = assay: Cytotoxicity against human SKOV3 cells by Alamar Blue assay; format: functional, cell-based
Histone deacetylase 1 [16] = target: T1, Histone deacetylase 1; assay: Inhibition of human recombinant HDAC1 expressed in human HEK293 cells using Ac-NH-GGK(Ac)-AMC as substrate after 180 mins by fluorescence assay relative to control
Histone deacetylase 3 [17] = target: T2, Histone deacetylase 3; assay: Inhibition of human recombinant HDAC3 expressed in Sf21 insect cells using Ac-NH-GGK(Ac)-AMC as substrate after 180 mins by fluorescence assay relative to control
[18] = target: T5, Histone deacetylase (Homo sapiens); assay: Inhibition of HDAC in human HeLa cells using Boc-K(Ac)-AMC as substrate preincubated for 4 hrs before substrate addition measured after 3 hrs by fluorescence assay relative to control; format: cell-based

| IC50 (Histone deacetylase [1]) [µM] | IC50 (Histone deacetylase [2]) [µM] | IC50 (Histone deacetylase 1 [3]) [µM] | IC50 (Histone deacetylase 3 [4]) [µM] | IC50 [5] [µM] | IC50 (Histone deacetylase 8) [µM] | Imax [6] [%] | IC50 [7] [µM] | IC50 [8] [µM] | IC50 [9] [µM] | IC50 (Insulin receptor) [µM] | IC50 [10] [µM] | IC50 [11] [µM] | IC50 [12] [µM] | SMILES | IC50 (HeLa) [µM] | IC50 (A549) [µM] | IC50 (A-431) [µM] | IC50 [14] [µM] | IC50 [15] [µM] | IC50 (SK-OV-3) [µM] | other results |
| --- | --- | --- | --- | --- | --- | --- | --- | --- | --- | --- | --- | --- | --- | --- | --- | --- | --- | --- | --- | --- | --- |
| 0.2 | 1.85 | 0.041 | 0.55 | > 32 | > 32 | 50 | 0.078 | 0.066 | 7.2 | 36 | 7 | 13 | > 100 | C#Cc1cccc(Nc2ncnc3ccc(OCc4ccc(C(=O)Nc5ccccc5N)cc4)cc23)c1 | 1.35 | 0.9 | 1.6 | 0.61 | 3.4 | 5.1 | IC50 [13]: > 100 µM |
| 0.38 | > 5.01 | 2.2 | 0.77 | > 32 | > 32 | 30 | – | – | – | – | – | – | – | C#Cc1cccc(Nc2ncnc3cc(NC(=O)c4ccc(C(=O)Nc5ccccc5N)s4)ccc23)c1 | 1.8 | 0.82 | 0.96 | 1.2 | 33 | 30 | Imax (Histone deacetylase 1 [16]): 75%; Imax (Histone deacetylase 3 [17]): 70% |
| > 32 | > 15.8 | > 32 | > 32 | > 32 | > 32 | – | – | – | – | – | – | – | > 100 | C#Cc1cccc(Nc2ncnc3cc(OCCOC)c(OCCOC)cc23)c1 [ERLOTINIB] | 8.3 | > 50 | 2.5 | 0.074 | 15 | 31 | – |
| 0.2 | 0.78 | 0.8 | 0.5 | > 32 | > 32 | 30 | – | – | – | – | – | – | – | C#Cc1cccc(Nc2ncnc3cc(NC(=O)c4ccc(C(=O)Nc5ccccc5N)cc4)ccc23)c1 | 1.7 | 1.4 | 1.6 | 0.46 | 39 | > 50 | Imax [18]: 30% |
| > 32 | > 15.8 | 0.31 | 0.44 | > 32 | > 32 | – | – | – | – | – | – | – | – | C#Cc1cccc(Nc2ncnc3ccc(NC(=O)c4ccc(C(=O)Nc5ccccc5N)nc4)cc23)c1 | 21.5 | 39 | > 16 | 8 | 11 | 7.7 | Imax (Histone deacetylase 1 [16]): 70% |
| 0.25 | 2.46 | 0.074 | 0.51 | > 32 | > 32 | – | 0.033 | 0.039 | 28 | 150 | 11 | 22 | > 100 | Nc1ccccc1NC(=O)c1ccc(COc2ccc3ncnc(Nc4cccc(Br)c4)c3c2)cc1 | 1.45 | 1.3 | 1.7 | 0.62 | 5.1 | 6.3 | Imax (Histone deacetylase 3 [17]): 75%; IC50 [13]: > 100 µM |
| > 32 | > 15.8 | 8.6 | 0.92 | > 32 | > 32 | – | – | – | – | – | – | – | – | C#Cc1cccc(Nc2ncnc3ccc(NC(=O)c4ccc(C(=O)Nc5ccccc5N)s4)cc23)c1 | > 50 | > 50 | > 16 | 0.41 | > 50 | > 50 | – |
| 7.2 | 4.24 | 0.091 | 0.84 | > 32 | > 32 | 50 | 1.3 | 2.9 | 16 | 41 | 15 | 17 | 24 | C#Cc1cccc(Nc2ncnc3ccc(S(=O)(=O)n4ccc(/C=C/C(=O)Nc5ccccc5N)c4)cc23)c1 | 3.45 | 3.7 | 3.7 | 2.5 | 27 | 5.7 | Imax (Histone deacetylase 3 [17]): 75%; IC50 [13]: 27 µM |
| > 32 | > 15.8 | 10.5 | 0.61 | > 32 | > 32 | – | – | – | – | – | – | – | – | C#Cc1cccc(Nc2ncnc3ccc(NC(=O)c4ccc(C(=O)Nc5ccccc5N)cc4)cc23)c1 | > 50 | > 50 | > 16 | 0.33 | > 50 | > 50 | – |
| 0.0064 | 0.034 | 0.0065 | 0.015 | 0.0073 | 0.59 | – | 1.2 | 3.4 | 70 | 65 | 27 | > 100 | > 100 | C#Cc1cccc(Nc2ncnc3ccc(S(=O)(=O)n4ccc(/C=C/C(=O)NO)c4)cc23)c1 | 0.5 | 0.24 | 0.26 | 0.16 | 0.19 | 0.56 | IC50 [13]: > 100 µM |
| 0.51 | > 5.01 | 5.6 | 0.32 | > 32 | > 32 | 30 | – | – | – | – | – | – | – | C#Cc1cccc(Nc2ncnc3cc(NC(=O)c4ccc(C(=O)Nc5ccccc5N)nc4)ccc23)c1 | 1.5 | 2.1 | 0.79 | 0.45 | > 50 | > 50 | – |
